Among the data in patent US20180147256A1, “MEANS AND METHODS FOR TREATING FACIOSCAPULOHUMERAL MUSCULAR DYSTROPHY (FSHD)” (ACADEMISCH ZIEKENHUIS LEIDEN H.O.D.N. LUMC, priority 2015, published 2018) are DUX4 transcript levels values, retold here.

This assay has as its system DUX4. Briefly: DUX4 transcript levels in FSHD primary muscle cell cultures treated with PR-619. The class given is cell-based. The settings on record: DUX4 expressing human primary FSHD myoblasts; 5 μM, 10 μM and 20 μM. How it is done: To further confirm the hypothesis that sumoylation is relevant for repression of DUX4, PR619 was used as inhibitor for the removal of SUMO substrates from their proteins. PR619 is a non-selective inhibitor of deubiquitinases and ubiquitin-like isopeptidases (like the family of SENP isopeptidases). […] DUX4 expressing human primary FSHD myoblasts were treated with 3 different concentrations of PR619 (5 μM, 10 μM and 20 μM) and cells were harvested for RNA isolation. […] Thus PR619 treatment of DUX4 expressing primary FSHD myotubes leads to DUX4 downregulation.
Human primary myoblast cell lines were originating from the University of Rochester bio repository (http://www.urmc.rochester.edu/fields-center/). Muscle samples were obtained after subjects were consented under a protocol approved by the institutional review board at the University of Rochester. […]
Myoblast and myotube samples were harvested for RNA isolation by adding QIAzol lysis reagent (#79306 Qiagen N.V., Venlo, The Netherlands). […] Gene specific cDNA products were quantified by qPCR in duplicate using SYBR green master mix supplemented with gene specific primers (table S2) using the CFX96 system (Bio-Rad, Veenendaal, The Netherlands). Data were analyzed by Bio-Rad CFX manager version 3.0 (Bio-Rad) using GAPDH and GUSB as reference genes.

With `N#CSc1cc(SC#N)c(N)nc1N` [PR-619, 2,6-Diamino-3,5-dithiocyanopyridine], the DUX4 transcript levels result is listed as “decreased in cells treated with PR-619 in a dose dependent manner”.
